In patent publication US20240279221A1, “HETEROCYCLIC COMPOUNDS AND METHODS OF USE” (Schrödinger, Inc., priority 2021, published 2024) one finds IC50 data, which are given here for 26 molecules.

The target of this assay is SOS1:KRAS (G12C) interaction (Homo sapiens (Human), UniProt Q07889). The assay is described as follows: SOS1-KRas(G12C) FRET Assay. It is filed as binding. Conditions: 0.5 nM His10-SOS1 (res. 564-1049), 2.5 nM GST-KRAS (res. 1-169, G12C); read-out: SOS-KRas(G12C) FRET IC50. On the procedure:
Inhibition of the SOS1:KRAS interaction was measured using purified GST-tagged KRAS (res. 1-169, G12C, purified based on Hillig, et al., Proc Natl Acad Sci USA (2019); 116(7):2551-2560) and recombinant His10-SOS1 (res. 564-1049; purified based on Hillig, et al.). The final assay was performed at 20 uL with 0.5 nM SOS1 protein and 2.5 nM KRAS protein in a buffer of PBS, 0.1% BSA, 5 mM MgCl2, 0.0025% Igepal, 100 mM KF, 5 mM DTT in a white 384 square well OptiPlate (PerkinElmer, Cat. 6007290). A 2× KRAS working solution was prepared in an assay buffer containing 5 nM GST-KRAS G12C and 2 nM anti-GST-Eu(K) (Cisbio, Cat. 61GSTKLA) and pre-incubated for 15 minutes at 25° C. Compounds were serially diluted in 100% DMSO from 2 mM (positive control, compound I-13, PCT Publ. No. WO2018/115380) or 20 mM and then diluted 1:20 in assay buffer before incubation with a solution of SOS1 protein mixed 1:5 with anti-6His-XL665 FRET donor (Cisbio, Cat. 61HISXL) for 15 minutes at 25° C. before addition of 2× KRAS working solution. The final DMSO concentration is 0.5%. Plates were incubated at RT for 2 hrs before the FRET signal was measured using Envision at emission 665 nm and 615 nm. FRET signal was converted to percentage of protein-protein interaction using the following equation:
[formula] • C: signal with compound treatment • P: signal for positive control (DMSO) • N: signal for negative control (no SOS1 added) • IC50 and Hill coefficients were obtained using Graph Pad Prism (Graph Pad software, Inc, USA) with non-linear regression analysis.

Sequence of SOS1:KRAS (G12C) interaction (Q07889 564-1049, stated change not applied): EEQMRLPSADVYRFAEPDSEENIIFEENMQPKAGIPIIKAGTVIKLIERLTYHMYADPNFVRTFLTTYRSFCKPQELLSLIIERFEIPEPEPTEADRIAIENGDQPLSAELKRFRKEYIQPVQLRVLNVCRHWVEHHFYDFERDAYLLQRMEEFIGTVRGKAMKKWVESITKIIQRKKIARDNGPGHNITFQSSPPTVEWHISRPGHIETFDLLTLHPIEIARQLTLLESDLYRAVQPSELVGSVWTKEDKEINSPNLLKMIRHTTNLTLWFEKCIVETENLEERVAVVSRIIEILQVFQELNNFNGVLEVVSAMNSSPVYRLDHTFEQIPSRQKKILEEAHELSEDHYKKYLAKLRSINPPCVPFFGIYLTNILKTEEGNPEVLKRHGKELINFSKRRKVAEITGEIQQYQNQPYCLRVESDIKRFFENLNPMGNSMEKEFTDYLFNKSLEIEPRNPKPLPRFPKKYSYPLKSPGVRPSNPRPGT

With `C[C@@H](Nc1nn(C)c(=O)c2cc(=O)n(C34CNC(C3)C4)cc12)c1cccc(C(F)F)c1F` [Example 145, (R)-6-(2-azabicyclo[2.1.1]hexan-4-yl)-4-((1-(3-(difluoromethyl)-2-fluorophenyl)ethyl)amino)-2-methyl-2,6-dihydropyrido[3,4-d]pyridazine-1,7-dione], the IC50 turned out to be 83 nM.
Take `COCC(F)(F)c1cccc([C@@H](C)Nc2nn(C)c(=O)c3cc(=O)n(C4(C(F)F)CC4)cc23)c1F` [Example 161, 4-[[(1R)-1-[3-(1,1-difluoro-2-methoxy-ethyl)-2-fluoro-phenyl]ethyl]amino]-6-[1-(difluoromethyl)cyclopropyl]-2-methyl-pyrido[3,4-d]pyridazine-1,7-dione]: the IC50 came out at 24.9 nM.
As for `C[C@@H](Nc1nn(C)c(=O)c2c(OC3CC(F)(F)C3)c(=O)n(C3(C(F)F)CC3)cc12)c1cccc(C(F)F)c1F` [Example 87, (R)-8-(3,3-difluorocyclobutoxy)-4-((1-(3-(difluoromethyl)-2-fluorophenyl)ethyl)amino)-6-(1-(difluoromethyl)cyclopropyl)-2-methylpyrido[3,4-d]pyridazine-1,7(2H,6H)-dione], the figure is 118 nM; as for `C[C@@H](Nc1nn(C)c(=O)c2cc(=O)n(C3(C)CC(F)(F)C3)cc12)c1cccc(C(F)F)c1F` [Example 134, (R)-6-(3,3-difluoro-1-methylcyclobutyl)-4-((1-(3-(difluoromethyl)-2-fluorophenyl)ethyl)amino)-2-methyl-2,6-dihydropyrido[3,4-d]pyridazine-1,7-dione], 282 nM; as for `C[C@@H](Nc1nn(C)c(=O)c2cc(=O)n([C@@H]3CC3(C)C)cc12)c1cccc(C(F)F)c1F` (single isomer, unassigned) [Example 132], 152 nM.
As for `Cc1cnc(C(F)(F)c2cccc([C@H](C)Nc3nn(C)c(=O)c4cc(=O)n(C5(C(F)F)CC5)cc34)c2F)cn1` [Example 177, (S)-4-((1-(3-(difluoro(5-methylpyrazin-2-yl)methyl)-2-fluorophenyl)ethyl)amino)-6-(1-(difluoromethyl)cyclopropyl)-2-methyl-2,6-dihydropyrido[3,4-d]pyridazine-1,7-dione], the figure is over 10000 nM.
As for `C[C@H](Nc1nn(C)c(=O)c2cc(=O)n(C3(C(F)F)CC3)cc12)c1cccc2cccn12` [Example 113, (S)-6-(1-(difluoromethyl)cyclopropyl)-4-((1-(indolizin-5-yl)ethyl)amino)-2-methyl-2,6-dihydropyrido[3,4-d]pyridazine-1,7-dione], the figure is over 10000 nM; as for `C[C@H](Nc1nn(C)c(=O)c2cc(=O)n(C3CC3)cc12)c1cccc(C(F)(F)CO)c1F` [Example 103, (S)-6-cyclopropyl-4-((1-(3-(1,1-difluoro-2-hydroxyethyl)-2-fluorophenyl)ethyl)amino)-2-methyl-2,6-dihydropyrido[3,4-d]pyridazine-1,7-dione], 7800 nM.
Turning to `C[C@@H](Nc1nn(C)c(=O)c2cc(=O)n(C3CC3)cc12)c1cccc2ccccc12` [Example 1, (R)-6-cyclopropyl-2-methyl-4-((1-(naphthalen-1-yl)ethyl)amino)-2,6-dihydropyrido[3,4-d]pyridazine-1,7-dione], the IC50 was 1030 nM.
Next, `Cn1nc(N[C@H](c2cccc(C(F)(F)F)c2)C(F)F)c2cn(C3CC3)c(=O)cc2c1=O` [Example 112, (R)-6-cyclopropyl-4-((2,2-difluoro-1-(3-(trifluoromethyl)phenyl)ethyl)amino)-2-methylpyrido[3,4-d]pyridazine-1,7(2H,6H)-dione]: over 10000 nM; `C[C@@H](Nc1nn(C)c(=O)c2cc(=O)n(C3CC3)cc12)c1cccc(C(F)(F)CO)c1F` [Example 104, (R)-6-cyclopropyl-4-((1-(3-(1,1-difluoro-2-hydroxyethyl)-2-fluorophenyl)ethyl)amino)-2-methyl-2,6-dihydropyrido[3,4-d]pyridazine-1,7-dione]: 37 nM.
As for `C[C@@H](Nc1nn(C)c(=O)c2cc(=O)n([C@@]3(C(F)(F)F)CCOC3)cc12)c1cccc2c(F)coc12` (single isomer, unassigned) [Example 166], the figure is 34.8 nM; as for `C[C@@H](Nc1nn(C)c(=O)c2cc(=O)n(C34COC(C)(C3)C4)cc12)c1cccc(C(F)F)c1F` [Example 179, (R)-4-((1-(3-(difluoromethyl)-2-fluorophenyl)ethyl)amino)-2-methyl-6-(1-methyl-2-oxabicyclo[2.1.1]hexan-4-yl)-2,6-dihydropyrido[3,4-d]pyridazine-1,7-dione], 68.4 nM; as for `CC(=O)N1CC[C@](C)(n2cc3c(N[C@H](C)c4cccc(C(F)F)c4F)nn(C)c(=O)c3cc2=O)C1` (single isomer, unassigned) [Example 144], 209 nM.
As for `C[C@@H](Nc1nn(C)c(=O)c2cc(=O)n([C@@]3(C(F)(F)F)CCOC3)cc12)c1cccc2c1OCC2(F)F` (single isomer, unassigned) [Example 168], the figure is 13.5 nM; as for `C[C@@H](Nc1nn(C)c(=O)c2cc(=O)n(C34COC(CF)(C3)C4)cc12)c1cccc(C(F)F)c1F` [Example 178, (R)-4-((1-(3-(difluoromethyl)-2-fluorophenyl)ethyl)amino)-6-(1-(fluoromethyl)-2-oxabicyclo[2.1.1]hexan-4-yl)-2-methyl-2,6-dihydropyrido[3,4-d]pyridazine-1,7-dione], 76 nM; as for `C[C@@H](Nc1nn(C)c(=O)c2cc(=O)n([C@H]3C[C@@H]3c3cncc(F)c3)cc12)c1cccc(C(F)F)c1F` (single isomer, unassigned) [Example 93], 60.8 nM.
For the molecule `COC(C)(C)C(F)(F)c1cccc([C@@H](C)Nc2nn(C)c(=O)c3cc(=O)n(C4CC4)cc23)c1F` [Example 109, (R)-6-cyclopropyl-4-((1-(3-(1,1-difluoro-2-methoxy-2-methylpropyl)-2-fluorophenyl)ethyl)amino)-2-methyl-2,6-dihydropyrido[3,4-d]pyridazine-1,7-dione], the IC50 is 120 nM.
For the molecule `COCC(F)(F)c1cccc([C@H](C)Nc2nn(C)c(=O)c3cc(=O)n(C4(C(F)F)CC4)cc23)c1F` [Example 162, 4-[[(1S)-1-[3-(1,1-difluoro-2-methoxy-ethyl)-2-fluoro-phenyl]ethyl]amino]-6-[1-(difluoromethyl)cyclopropyl]-2-methyl-pyrido[3,4-d]pyridazine-1,7-dione], the IC50 is over 10000 nM.
For the molecule `C[C@@H](Nc1nn(C)c(=O)c2cc(=O)n(C3CC3)cc12)c1ccc2ccccc2c1` [Example 182, (R)-6-cyclopropyl-2-methyl-4-((1-(naphthalen-2-yl)ethyl)amino)-2,6-dihydropyrido[3,4-d]pyridazine-1,7-dione], the IC50 came to 2440 nM.
Next, `CNC(=O)C(F)(F)c1cccc([C@H](C)Nc2nn(C)c(=O)c3cc(=O)n(C4CC4)cc23)c1F` [Example 108, (S)-2-(3-(1-((6-cyclopropyl-2-methyl-1,7-dioxo-1,2,6,7-tetrahydropyrido[3,4-d]pyridazin-4-yl)amino)ethyl)-2-fluorophenyl)-2,2-difluoro-N-methylacetamide]: over 10000 nM; `C[C@H](Nc1nn(C)c(=O)c2cc(=O)n(C3CCOCC3)cc12)c1cccc2sccc12` [Example 63, (S)-4-((1-(benzo[b]thiophen-4-yl)ethyl)amino)-2-methyl-6-(tetrahydro-2H-pyran-4-yl)-2,6-dihydropyrido[3,4-d]pyridazine-1,7-dione]: over 10000 nM; `C[C@@H](Nc1nn(C)c(=O)c2cc(=O)n([C@]3(C(F)F)CCOC3)cc12)c1cccc(C(F)F)c1F` (single isomer, unassigned) [Example 120]: 19.9 nM.
For `C[C@H](Nc1nn(C)c(=O)c2cc(=O)n(C3(C(F)F)CC3)cc12)c1cccc2c1OCCC2(F)F` [Example 181, (S)-4-((1-(4,4-difluorochroman-8-yl)ethyl)amino)-6-(1-(difluoromethyl)cyclopropyl)-2-methyl-2,6-dihydropyrido[3,4-d]pyridazine-1,7-dione], the IC50 is over 10000 nM.
As for `COC1(C(=O)N2CC(C)(n3cc4c(N[C@H](C)c5cccc(C(F)F)c5F)nn(C)c(=O)c4cc3=O)C2)CC1` [Example 151, (R)-4-((1-(3-(difluoromethyl)-2-fluorophenyl)ethyl)amino)-6-(1-(1-methoxycyclopropane-1-carbonyl)-3-methylazetidin-3-yl)-2-methyl-2,6-dihydropyrido[3,4-d]pyridazine-1,7-dione], the figure is 564 nM; as for `CC(=O)N1CC2(n3cc4c(N[C@H](C)c5cccc(C(F)F)c5F)nn(C)c(=O)c4cc3=O)CC1C2` [Example 146, (R)-6-(2-acetyl-2-azabicyclo[2.1.1]hexan-4-yl)-4-((1-(3-(difluoromethyl)-2-fluorophenyl)ethyl)amino)-2-methyl-2,6-dihydropyrido[3,4-d]pyridazine-1,7-dione], 70.6 nM.
